According to patent US11597724B2, “Herbicidally active 3-phenylisoxazoline-5-carboxamides of tetrahydro and dihydrofuran carboxylic acids and esters” (Bayer Aktiengesellschaft, priority 2017, dated 2023):

Assays:
Format in all cases: in vivo
[1] = test system: Abutilon theophrasti; assay: Pre-emergence herbicidal activity against ABUTH; details: dosage 80 g/ha
Excerpt: (§1) 1. Pre-Emergence Herbicidal Action and Crop Plant Compatibility Seeds of monocotyledonous and dicotyledonous weed plants and crop plants are placed in plastic or wood fiber pots and covered with soil. The compounds of the invention, formulated in the form of wettable powders (WP) or as emulsion concentrates (EC), are then applied onto the surface of the covering soil as aqueous suspension or emulsion with addition of 0.5% additive at a water application rate of 600 l/ha (converted). After the treatment, the pots are placed in a greenhouse and kept under good growth conditions for the trial plants. After about 3 weeks, the effect of the preparations is scored visually in comparison with untreated controls as percentages. For example, 100% activity=the plants have died, 0% activity=like control plants. ABUTH: Abutilon theophrasti ALOMY: Alopecurus myosuroides

[2] = test system: Echinochloa crus-galli; assay: Post-emergence herbicidal activity against ECHCG; details: Echinochloa crus-galli, 504 h, dosage 320 g/ha, rated about 3 weeks after treatment
Description: (§2) ECHCG: Echinochloa crus-galli HORMU: Hordeum murinum 2. Post-Emergence Herbicidal Action and Crop Plant Compatibility Seeds of monocotyledonous and dicotyledonous weeds and crop plants are placed in sandy loam in plastic or wood-fiber pots, covered with soil and cultivated in a greenhouse under controlled growth conditions. 2 to 3 weeks after sowing, the test plants are treated at the one-leaf stage. The compounds of the invention, formulated in the form of wettable powders (WP) or as emulsion concentrates (EC), are then sprayed onto the green parts of the plants as aqueous suspension or emulsion with addition of 0.5% additive at a water application rate of 600 l/ha (converted). After the test plants had been kept in the greenhouse under optimum growth conditions for about 3 weeks, the activity of the preparations is rated visually in comparison to untreated controls. For example, 100% activity=the plants have died, 0% activity=like control plants.

[3] = test system: Pharbitis purpurea; assay: Post-emergence herbicidal activity against PHBPU; details: Ipomoea purpurea, 504 h, dosage 320 g/ha, rated about 3 weeks after treatment
Description: as §2, with “LOLRI: Lolium rigidum PHBPU: Pharbitis purpurea” for “ECHCG: Echinochloa crus-galli HORMU: Hordeum murinum”

[4] = Post-emergence treatment, summary over harmful plants; details: 504 h, application rate of 0.32 kg of active substance or less per hectare, read-out: herbicidal action, post-emergence treatment (very good herbicidal activity)
Description: 2. Post-Emergence Herbicidal Action and Crop Plant Compatibility
as §2, with “Seeds” for “ECHCG: Echinochloa crus-galli HORMU: Hordeum murinum 2. Post-Emergence Herbicidal Action and Crop Plant Compatibility Seeds”
As shown by the results, compounds according to the invention such as, for example, the compounds No. I-35 and other compounds from the tables (for example I-28, I-38, I-01, I-19, I-36, I-29, I-32, I-11, I-12, I-37, I-06, I-09, I-33, I-34, I-13, I-04, I-26, I-21, I-30, I-05, I-03, I-20, I-27, I-14, I-10, I-23, I-07, I-25, I-02, I-08, I-24, I-41, I-42, I-43, I-44, I-46, I-49, I-54, I-55, I-56) have, when used for post-emergence treatment, very good herbicidal activity (80% to 100% herbicidal action) against harmful plants such as Abutilon theophrasti, Alopecurus myosuroides, Amaranthus retroflexus, Avena fatua, Echinochloa crus-galli, Hordeum murinum, Lolium rigidum, Pharbitis purpurea, Polygonum convolvulus, Setaria viridis, Stellaria media, Veronica persica and Viola tricolor at an application rate of 0.32 kg of active substance or less per hectare.

[5] = test system: Alopecurus myosuroides; assay: Post-emergence herbicidal activity against ALOMY; details: Alopecurus myosuroides, 504 h, dosage 320 g/ha, rated about 3 weeks after treatment
Description: as §2, with “ABUTH: Abutilon theophrasti ALOMY: Alopecurus myosuroides” for “ECHCG: Echinochloa crus-galli HORMU: Hordeum murinum”

[6] = test system: Viola tricolor; assay: Post-emergence herbicidal activity against VIOTR; details: Viola tricolor, 504 h, dosage 320 g/ha, rated about 3 weeks after treatment
Description: as §2, with “VIOTR: Viola tricolor” for “ECHCG: Echinochloa crus-galli HORMU: Hordeum murinum”

[7] = test system: Polygonum convolvulus; assay: Post-emergence herbicidal activity against POLCO; details: Fallopia convolvulus, 504 h, dosage 320 g/ha, rated about 3 weeks after treatment
Description: as §2, with “POLCO: Polygonum convolvulus SETVI: Setaria viridis” for “ECHCG: Echinochloa crus-galli HORMU: Hordeum murinum”

[8] = test system: Veronica persica; assay: Post-emergence herbicidal activity against VERPE; details: Veronica persica, 504 h, dosage 320 g/ha
Description: as §2, with “STEME: Stellaria media VERPE: Veronica persica” for “ECHCG: Echinochloa crus-galli HORMU: Hordeum murinum”

[9] = test system: Setaria viridis; assay: Post-emergence herbicidal activity against SETVI; details: Setaria viridis, 504 h, dosage 320 g/ha, rated about 3 weeks after treatment
Description: as §2, with “POLCO: Polygonum convolvulus SETVI: Setaria viridis” for “ECHCG: Echinochloa crus-galli HORMU: Hordeum murinum”

[10] = test system: Avena fatua; assay: Post-emergence herbicidal activity against AVEFA; details: Avena fatua, 504 h, dosage 320 g/ha, rated about 3 weeks after treatment
Description: as §2, with “AMARE: Amaranthus retroflexus AVEFA: Avena fatua” for “ECHCG: Echinochloa crus-galli HORMU: Hordeum murinum”

[11] = test system: Veronica persica; assay: Pre-emergence herbicidal activity against VERPE; details: Veronica persica, 504 h, dosage 80 g/ha
Excerpt: as §1, with “STEME: Stellaria media VERPE: Veronica persica” for “ABUTH: Abutilon theophrasti ALOMY: Alopecurus myosuroides”

[12] = test system: Hordeum murinum; assay: Post-emergence herbicidal activity against HORMU; details: Hordeum murinum, 504 h, dosage 320 g/ha
Description: as §2

[13] = test system: Amaranthus retroflexus; assay: Pre-emergence herbicidal activity against AMARE; details: Amaranthus retroflexus, 504 h, dosage 80 g/ha
Excerpt: as §1, with “AMARE: Amaranthus retroflexus AVEFA: Avena fatua” for “ABUTH: Abutilon theophrasti ALOMY: Alopecurus myosuroides”

[14] = test system: Lolium rigidum; assay: Post-emergence herbicidal activity against LOLRI; details: Lolium rigidum, 504 h, dosage 320 g/ha, rated about 3 weeks after treatment
Description: as §2, with “LOLRI: Lolium rigidum PHBPU: Pharbitis purpurea” for “ECHCG: Echinochloa crus-galli HORMU: Hordeum murinum”

[15] = test system: Stellaria media; assay: Pre-emergence herbicidal activity against STEME; details: Stellaria media, 504 h, dosage 80 g/ha
Excerpt: as §1, with “STEME: Stellaria media VERPE: Veronica persica” for “ABUTH: Abutilon theophrasti ALOMY: Alopecurus myosuroides”

[16] = test system: Abutilon theophrasti; assay: Post-emergence herbicidal activity against ABUTH; details: Abutilon theophrasti, 504 h, dosage 320 g/ha, rated about 3 weeks after treatment
Description: as §2, with “ABUTH: Abutilon theophrasti ALOMY: Alopecurus myosuroides” for “ECHCG: Echinochloa crus-galli HORMU: Hordeum murinum”

[17] = test system: Stellaria media; assay: Post-emergence herbicidal activity against STEME; details: Stellaria media, 504 h, dosage 320 g/ha, rated about 3 weeks after treatment
Description: as §2, with “STEME: Stellaria media VERPE: Veronica persica” for “ECHCG: Echinochloa crus-galli HORMU: Hordeum murinum”

SMILES | Pre-emergence herbicidal activity against ABUTH in % [1] | pest or weed control at 320 g/ha [2] | pest or weed control at 320 g/ha [3] | pest or weed control at 320 g/ha [4] | pest or weed control at 320 g/ha [5] | pest or weed control at 320 g/ha [6] | pest or weed control at 320 g/ha [7] | pest or weed control at 320 g/ha [8] | pest or weed control at 320 g/ha [9] | pest or weed control at 320 g/ha [10] | pest or weed control at 80 g/ha [11] | pest or weed control at 320 g/ha [12] | pest or weed control at 80 g/ha [13] | pest or weed control at 320 g/ha [14] | pest or weed control at 80 g/ha [15] | pest or weed control at 320 g/ha [16] | pest or weed control at 320 g/ha [17]
COC(=O)[C@H]1C[C@@H](NC(=O)C2(OC)CC(c3cc(Cl)cc(Cl)c3)=NO2)CO1 (relative stereo) [I-02, methyl cis-4-[[3-(3,5-dichlorophenyl)-5-methoxy-4H-isoxazole-5-carbonyl]amino]tetrahydrofuran-2-carboxylate] | 100% | 90% | 90% | 80 to 100% | 80% | 80% | 90% | 80% | 80% |  |  |  |  |  |  |  | 
CCOC(=O)C1=C(NC(=O)C2(C)CC(c3cc(F)cc(F)c3)=NO2)COC1 (stereo not shown) [I-24, ethyl 4-[[3-(3,5-difluorophenyl)-5-methyl-4H-isoxazole-5-carbonyl]amino]-2,5-dihydrofuran-3-carboxylate] |  |  | 80% | 80 to 100% | 90% |  | 90% |  |  | 90% | 100% | 90% | 80% | 90% |  |  | 
COC(=O)C1=C(NC(=O)C2(C)CC(c3cc(F)cc(F)c3)=NO2)COC1 (stereo not shown) [I-25, methyl 4-[[3-(3,5-difluorophenyl)-5-methyl-4H-isoxazole-5-carbonyl]amino]-2,5-dihydrofuran-3-carboxylate] |  |  | 80% | 80 to 100% | 100% |  | 90% | 80% |  | 100% | 100% |  |  |  | 100% | 80% | 90%
